The source made the active and inactive calls.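 Rule for the calls: active = blocks the choline transporter at some tested dose and yields a fitted dose response curve; inconclusive = no clear call, values can overlap the other calls; inactive = no blocking at any dose or no curve.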
Each compound was assayed against High affinity choline transporter 1 (Homo sapiens) (UniProt Q9GZV3) (assay: human choline transporter blockers, potency – cell-based, 10-point CRC, membrane potential dye, dose response (AID 588401)). Conditions: HEK293-CHT, choline-induced depolarization, at 25 µM (top of the series).
Chain of High affinity choline transporter 1 (Homo sapiens) (Q9GZV3 whole entry, looked up): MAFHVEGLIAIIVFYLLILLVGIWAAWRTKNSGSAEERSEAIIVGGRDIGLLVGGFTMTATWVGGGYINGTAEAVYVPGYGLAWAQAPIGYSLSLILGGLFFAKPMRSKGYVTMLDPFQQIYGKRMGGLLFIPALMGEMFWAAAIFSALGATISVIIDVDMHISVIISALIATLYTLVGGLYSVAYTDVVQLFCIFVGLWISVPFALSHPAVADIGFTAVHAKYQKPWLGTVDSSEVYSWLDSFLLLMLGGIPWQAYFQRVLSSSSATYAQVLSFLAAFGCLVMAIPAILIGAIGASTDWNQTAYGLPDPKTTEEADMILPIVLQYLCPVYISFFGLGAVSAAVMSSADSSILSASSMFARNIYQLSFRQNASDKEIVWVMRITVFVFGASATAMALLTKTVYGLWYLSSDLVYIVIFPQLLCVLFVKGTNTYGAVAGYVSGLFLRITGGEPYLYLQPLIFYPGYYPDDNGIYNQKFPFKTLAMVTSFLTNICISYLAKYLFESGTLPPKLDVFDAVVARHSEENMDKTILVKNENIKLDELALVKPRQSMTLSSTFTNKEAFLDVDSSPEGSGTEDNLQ

Compound	inhibition (negative values = inhibition)
C=CCn1c(O)c(C(CC)=NC(C)c2ccccc2)c(=O)[nH]c1=O (stereo not drawn)	inactive

Same assay, conditions: HEK293-CHT, choline-induced depolarization, at 25 µM (top of the series), cells express LV-AA mutant CHT

Compound	inhibition (negative values = inhibition)
CN(C)CCCn1c(=O)n(C2CCCCC2)c(=O)c2c3c(sc21)CCCCC3	inactive
CC1(C(=O)N2CCC(CC3CC(c4ccc(Cl)cc4)=NO3)(C(=O)NCC3CCCCC3)CC2)CC1 (stereo not drawn)	inactive
O=C(NC1CCCCC1)C(c1ccc2ncccc2c1)N(Cc1ccccc1)C(=O)c1ccc2c(c1)OCCO2 (stereo not drawn)	inactive
O=C(c1c(O)c2ccccc2oc1=O)C1CCCCC1	inactive
Cc1nn(-c2ccccc2)c2[nH]c(=O)cc(C(F)(F)F)c12	inactive
CCS(=O)(=O)C1=NN2C(=N)/C(=C\c3ccc(OS(=O)(=O)c4ccccc4)cc3)C(=O)N=C2S1	inactive
NC(=S)N/N=C1/CCSc2ccc3ccccc3c21	inactive
CCCNc1nc2c(c(=O)n(C)c(=O)n2C)n1CCC(C)C	inactive
CCc1cc2c(N3CCN(c4nnc(CC)s4)CC3)ncnc2s1	inactive
COC(=O)/C(=C/c1c[nH]c2ccccc12)[N+](=O)[O-]	inactive
COc1ccc(OC)c(/C=C2\SC(=S)N(NS(=O)(=O)c3ccccc3)C2=O)c1	inactive
O=C(COC(=O)CCCSc1nc2ccccc2[nH]1)NC(=O)NC1CCCC1	inactive
O=C1ON=C(c2ccccc2)/C1=C/c1ccc(O)c(O)c1	inactive
CCCN(CCC)c1nc(N(CCC)CCC)[nH]c(=O)n1	inactive
O=C1NC(c2ccccc2)=C(c2ccc3ccccc3n2)C(c2ccncc2)N1 (stereo not drawn)	inactive
Cc1ccc(S(=O)(=O)N2[C@@H](c3ccc(Cl)cc3)C(C(=O)O)=CC[C@H]2c2ccc(Cl)c(Cl)c2)cc1	inactive
COc1ccccc1Nc1nnc(SCC2CCCCO2)s1 (stereo not drawn)	inactive
Cc1csc(NC(=O)CSc2nc(C(C)C)nc3ccccc23)n1	inactive
CC1CCCCC1NC(=O)Cn1nnc(-c2ccc(Cl)cc2)n1 (stereo not drawn)	inactive
CCCc1cc(NCC2CCCO2)n2c(nc3ccccc32)c1C#N (stereo not drawn)	inactive
COc1cc(NC(=O)c2csc(-c3ccncc3)n2)cc(C(=O)Nc2cccc(C(F)(F)F)c2)c1	inactive

Compound	inhibition (negative values = inhibition)
Cc1ccc(S(=O)(=O)N2[C@@H](c3ccc(Cl)cc3)C(C(=O)O)=CC[C@H]2c2ccc(Cl)cc2)cc1	inactive
COc1ccc(C2=Nn3c(nnc3C3CCCCC3)SC2)cc1OC	inactive
CCOC(=O)c1sc(NC(=O)CCN2C(=O)c3cccc([N+](=O)[O-])c3C2=O)c(C(=O)OCC)c1C	inactive
C/C(=N\NS(=O)(=O)c1ccc(Cl)c([N+](=O)[O-])c1)c1cc2ccccc2o1	inactive
CN(CCC#N)C(=O)COC(=O)c1ccccc1C(=O)c1ccc(Cl)c([N+](=O)[O-])c1	inactive
Cc1cc(Cl)ccc1OCCCC(=O)N1CCN(C(=O)c2ccco2)CC1	inactive
Cc1ccc(C(=O)NC2CCCCC2)cc1S(=O)(=O)N1CCCC1	inactive
O=C(O)C1CCN(c2nc(-c3ccccc3)nc3c2oc2ccccc23)CC1	inactive
Cc1ccc(C(=O)CSc2nnc(-c3ccco3)n2C)cc1	inactive
COc1cccc(OC)c1OCCCCCc1c(C)n[nH]c1C	inactive
O=C(CSc1nc2ccccc2[nH]1)c1ccc2c(c1)OCO2	inactive
CC1(C)CC(=O)C=C(Nc2cccc(Cl)c2Cl)C1	inactive
C/C(=N/NC(=O)c1cc(Cl)ccc1O)C12CC3CC(CC(C3)C1)C2	inactive
O=C(CSc1nnc(-c2ccncc2)n1Cc1ccco1)c1ccc(Cl)cc1	inactive
COCCCNC(=O)c1ccc(OC)c(OC2CCN(C(C)C)CC2)c1	inactive
CC(C)Nc1nc(Cl)nc(N(C#N)CN2C(=O)c3ccccc3C2=O)n1	inactive
Cc1noc(NS(=O)(=O)c2ccc(NC(=O)COc3ccc(Cl)cc3Cl)cc2)c1C	inactive
N=c1n(Cc2ccccc2)c2ccccc2n1CC(O)COc1ccccc1 (stereo not drawn)	inactive
Cc1cccc(C(=O)Nc2cccc(OCC(=O)O)c2)c1	inactive
CC(/C=N/NC(=O)c1cc(-c2ccncc2)nc2ccccc12)=C\c1ccco1	inactive
Cc1ccc(-c2cccc(CN3CCN(C(C)C)C(CCO)C3)c2)o1 (stereo not drawn)	inactive

Compound	inhibition (negative values = inhibition)
CCOC(=O)Cc1csc(NS(=O)(=O)c2ccc3c4c(cccc24)C(=O)N3CC)n1	inactive
CC(SCc1ccccc1)C(=O)N/N=C/c1ccc(OCC(=O)NCc2ccco2)cc1 (stereo not drawn)	inactive
CCOC(=O)C1CCN(Cc2c(O)c3ccccc3oc2=O)CC1	inactive
COc1ccc(C(C(=O)NC2CCCCC2)N(C(=O)c2ccco2)c2ccccc2C(C)=O)cc1OC (stereo not drawn)	inactive
COc1cc(/C=C2\S/C(=N/S(=O)(=O)Cc3ccccc3)NC2=O)c([N+](=O)[O-])cc1OC	inactive
Fc1ccc(NC(=S)Nc2ccc(F)c(Cl)c2)cc1Cl	inactive
O=C(Nc1ccccc1C(=O)NCCCN1CCOCC1)c1ccc(F)cc1	inactive
C[C@H](NC(=O)OC(C)(C)C)c1nnc(SCC(=O)c2ccc(Cl)cc2)o1	inactive
Cc1ccc(-n2cc(CN3CCN(Cc4nccn4C)CC3)c(-c3ccc(F)cc3)n2)cc1	inactive
CCCCc1cc(O)c(CCCC)c(O)c1	inactive
COc1cc(/C=C2/C(=O)c3cccc([N+](=O)[O-])c3C2=O)c(Br)cc1O	inactive
O=S(=O)(c1ccccc1F)N1CCN(CCc2ccccc2)CC1	inactive
CCc1cc2c(NCc3ccco3)ncnc2s1	inactive
CCOCCCNC(=O)/C(C#N)=C/c1ccc([N+](=O)[O-])o1	inactive
CC(C)C(=O)Nc1cccc(NC(=O)c2ccc(Cl)cc2Cl)c1	inactive
O=[N+]([O-])c1cc(Cc2ccccc2)cc(C=Nc2ccc(N3CCOCC3)cc2)c1O	inactive
Cc1cc(CN(C)C(=O)c2cc(COc3ccc(F)cc3Cl)on2)n[nH]1	inactive
Cc1ccc(N2NC(=O)/C(=C\c3cc4c(cc3[N+](=O)[O-])OCO4)C2=O)cc1C	inactive
CN(Cc1cccs1)c1ncnc2sccc12	inactive
CCc1ccc2oc(C(=O)NCC(c3ccc(OC)cc3)N3CCCCC3)c(C)c2c1 (stereo not drawn)	inactive
CC(Oc1ccccc1Cl)C(=O)Nc1ccc(S(=O)(=O)Nc2nccs2)cc1 (stereo not drawn)	inactive

Compound	inhibition (negative values = inhibition)
CC(/C=C1\SC(=S)N(NS(=O)(=O)c2ccccc2)C1=O)=C\c1ccccc1	inactive
Cc1ccccc1-n1c(C)cc(/C=N/NC(=O)c2ccc(CN3CCOCC3)cc2)c1C	inactive
O=C(C1CCCN(c2ncnc3c2nc2n3CCCCC2)C1)N1CCN(c2ccc(Cl)cc2)CC1 (stereo not drawn)	inactive
CCN(Cc1ccccc1)S(=O)(=O)c1cc(C(=O)NC2CCCCCC2)ccc1OC	inactive
Cc1nn2c(N3CCN(C)CC3)c3c(nc2c1-c1ccccc1)CCCC3	inactive
Oc1c(Cl)cc(Cl)cc1C=Nc1ccc2c(c1)OCCO2	inactive
COc1cc2c(cc1OC)-c1cc(NC3CCCCCCC3)nc(=O)n1CC2	inactive
c1ccc(CCNc2c3c(nc4ncnn24)CCC3)cc1	inactive
Cc1cccc(OCC(O)Cn2c(=N)n(Cc3ccccc3)c3ccccc32)c1 (stereo not drawn)	inactive
CC1CCCCC1NC(=O)c1c(O)nc2ccccn2c1=O (stereo not drawn)	inactive
O=C(c1ccc(Cl)c(S(=O)(=O)N2CCCC2)c1)N1CCN(c2ccccc2)CC1	inactive
Oc1cccc(C(O)CNCc2ccc(OCc3ccc(Cl)cc3Cl)cc2)c1 (stereo not drawn)	inactive
COc1cccc(/C=C2\SC(=S)N(NS(=O)(=O)c3ccccc3)C2=O)c1OC	inactive
CCCn1nc2cc(C(=O)NCc3ccc(C)cc3)ccc2c1OCC	inactive
O=C(CSc1nnc(-c2ccco2)n1Cc1ccco1)NCc1cccs1	inactive
COc1ccc(C(=O)NC(Cc2ccc(OC(=O)c3ccc(OC)cc3)cc2)C(=O)O)cc1 (stereo not drawn)	inactive
O=c1c2cc(Br)ccc2nc(-c2ccc(Cl)cc2)n1O	inactive
Cc1c(C(=O)OC(C)C)sc(NC(=O)c2cccnc2)c1C#N	inactive
O=C(N/N=C/c1ccsc1)c1c[nH]c2ccccc12	inactive
COc1cc(CNc2ccc(N3CCCCC3)cc2)ccc1OCC(=O)NC(C)(C)C	inactive
COc1cc(/C=C2/C(=O)ON=C2c2ccccc2)ccc1O	inactive

Same assay, conditions: HEK293-CHT, choline-induced depolarization, cells express LV-AA mutant CHT

Compound	IC50 [µM]
Cc1ccc(NC(=O)c2ccc(CN3CC(=O)N4CCCCC4C3=O)cc2)c(C)c1 (stereo not drawn)	4.47
CC(C)c1nnc(NC(=O)c2nc(S(=O)(=O)Cc3ccccc3)ncc2Cl)s1	4.47
CCCn1nc(NS(=O)(=O)c2cccc3nonc23)c2cc3cccc(C)c3nc21	3.55

— PubChem BioAssay AID588401 (Johns Hopkins Ion Channel Center, 2011)
